According to patent US20120214802A1, “PYRROLIDINE COMPOUNDS WHICH INHIBIT BETA-SECRETASE ACTIVITY AND METHODS OF USE THEREOF” (priority 2009, published 2012):
Where two headings read alike, the source gives them in different places.

Assays:
memapsin 2 [1] = molecular target: memapsin 2 (Homo sapiens, UniProt P56817); assay: Inhibition of memapsin 2 beta-secretase activity (fluorogenic substrate FS-2); format: biochemical; conditions: pH 4, 37° C., read-out: M2 Ki
How it was run: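 Memapsin 2 pre-incubated with compound for 20 min at pH 4, 37° C. Reaction started with fluorogenic substrate FS-2, […], derived from Swedish-variant APP beta-secretase site; inhibition measured from fluorescence.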

memapsin 2 [2] = molecular target: T1, memapsin 2 (Cricetulus griseus, UniProt G3IAK4); assay: Cellular Aβ IC50 determination (Aβ40 sandwich ELISA); format: cell-based, Chinese hamster; conditions: CHO cells over-expressing human APP695 with London and Swedish mutations, 24 h, read-out: M2 IC50
T1 construct: endogenous in cells; host or cells: Chinese hamster ovary cells over-expressing human APP695 (London + Swedish)
T1 sequence (G3IAK4 22-501): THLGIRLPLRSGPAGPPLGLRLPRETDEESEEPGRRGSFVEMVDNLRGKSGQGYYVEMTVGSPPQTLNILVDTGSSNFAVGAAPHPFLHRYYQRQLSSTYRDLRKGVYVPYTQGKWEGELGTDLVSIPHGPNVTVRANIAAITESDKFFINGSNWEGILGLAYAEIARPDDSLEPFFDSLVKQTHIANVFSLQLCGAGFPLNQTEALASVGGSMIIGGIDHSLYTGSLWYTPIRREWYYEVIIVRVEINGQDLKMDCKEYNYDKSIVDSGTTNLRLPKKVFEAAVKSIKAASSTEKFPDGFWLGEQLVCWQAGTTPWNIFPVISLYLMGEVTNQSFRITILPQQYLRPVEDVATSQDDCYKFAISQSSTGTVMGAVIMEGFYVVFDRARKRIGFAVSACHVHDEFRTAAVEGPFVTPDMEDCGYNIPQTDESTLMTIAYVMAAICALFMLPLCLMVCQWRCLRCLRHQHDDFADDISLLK
How it was run: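 CHO cells overexpressing human APP695 (London and Swedish mutations) treated 48 h post-seeding with serially diluted compounds (top near 4 μM, 0.4% DMSO), 24 h at 37° C, 5% CO2. Medium Aβ40 measured by sandwich ELISA; levels relative to control fitted to 4-parameter IC50 model.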

cathepsin D = cathepsin D (Homo sapiens, UniProt P07339); assay: Inhibition of cathepsin D activity (MALDI-TOF, substrate ELDLAVEFWHDR); format: biochemical
Chain of cathepsin D (P07339 65-412, species assumed): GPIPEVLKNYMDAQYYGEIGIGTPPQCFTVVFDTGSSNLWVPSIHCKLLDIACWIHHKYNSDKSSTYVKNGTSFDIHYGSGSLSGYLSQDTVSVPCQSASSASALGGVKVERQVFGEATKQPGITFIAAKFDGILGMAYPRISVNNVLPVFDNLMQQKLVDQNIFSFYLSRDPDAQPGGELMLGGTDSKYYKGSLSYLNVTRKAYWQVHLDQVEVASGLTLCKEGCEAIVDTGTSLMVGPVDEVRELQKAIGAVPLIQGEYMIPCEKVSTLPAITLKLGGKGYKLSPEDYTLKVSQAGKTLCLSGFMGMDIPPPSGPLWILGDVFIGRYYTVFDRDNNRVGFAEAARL
Procedure: [The source words this procedure for another target and reports this target under the same test.] (§1) A substrate peptide NH3-ELDLAVEFWHDR-CO2 (SEQ ID NO.: 1) was dissolved at 2 mg/mL in 10% glacial acetic acid and diluted into 0.009M NaOH to obtain μM concentration at pH 4.1. After equilibration at 37 degrees C., the reactions were initiated by the addition of an aliquot of memapsin 2. Aliquots were removed at time intervals, and combined with an equal volume of MALDI-TOF matrix (α-hydroxycinnamic acid in acetone, 20 mg/mL) and immediately spotted in duplicate onto a stainless-steel MALDI sample plate. MALDI-TOF mass spectrometry was performed on a PE Biosystems Voyager DE. The instrument was operated at 25,000 accelerating volts in positive mode with a 150 ns delay. Ions with a mass-to-charge ratio (m/z) were detected in the range of 650-2000 atomic mass units. Data were analyzed by the Voyager Data Explorer module to obtain ion intensity data for mass species of substrates and corresponding products in a given mixture. Relative product formation was calculated as the ratio of signal intensity of the product to the sum of signal intensities of both product and the corresponding substrate. Relative product formed per unit time was obtained from non-linear regression analysis of the data representing the initial 15% formation of product using the model:
where k was the relative hydrolytic rate constant and T was time in seconds. Initial rates were expressed relative to uninhibited controls and fit to a tight-binding model of competitive inhibition as above.

CYP3A4 = molecular target: T2, CYP3A4 (Homo sapiens, UniProt P08684); assay: CYP3A4 inhibition (midazolam metabolism in human liver microsomes); format: in vitro ADME; conditions: substrate midazolam, read-out: CYP 3A4Ki
T2 construct: host or cells: human liver microsomes
T2 sequence (P08684 whole entry): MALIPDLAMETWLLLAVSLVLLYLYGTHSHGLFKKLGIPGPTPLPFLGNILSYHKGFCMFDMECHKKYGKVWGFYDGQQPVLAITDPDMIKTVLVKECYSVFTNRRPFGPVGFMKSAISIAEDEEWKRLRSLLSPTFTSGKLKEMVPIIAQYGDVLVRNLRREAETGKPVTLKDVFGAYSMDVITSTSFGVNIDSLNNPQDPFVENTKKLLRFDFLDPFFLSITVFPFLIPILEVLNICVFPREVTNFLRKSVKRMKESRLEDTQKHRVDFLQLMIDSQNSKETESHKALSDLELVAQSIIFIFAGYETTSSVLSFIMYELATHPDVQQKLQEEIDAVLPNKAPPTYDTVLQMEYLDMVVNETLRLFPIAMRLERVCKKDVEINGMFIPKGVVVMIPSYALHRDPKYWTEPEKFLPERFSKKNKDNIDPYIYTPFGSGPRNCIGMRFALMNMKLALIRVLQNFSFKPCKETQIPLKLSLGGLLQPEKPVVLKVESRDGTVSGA
How it was run: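 Human liver microsomes (0.1 mg/mL) with midazolam at 1.25–10 μM and compound at 0.078–10 μM, in 100 mM phosphate pH 7.4 with NADPH regeneration at 37.2 °C, sampled at 20, 30 and 40 min. 1′-Hydroxymidazolam was quantified by LC-MS/MS. Ki was obtained by Dixon plots across substrate concentrations.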

memapsin 1 = molecular target: T3, memapsin 1 (Homo sapiens, UniProt Q9Y5Z0); assay: Inhibition of memapsin 1 beta-secretase activity (MALDI-TOF, substrate ELDLAVEFWHDR); format: biochemical; conditions: read-out: M1 Ki
T3 sequence (Q9Y5Z0 63-518): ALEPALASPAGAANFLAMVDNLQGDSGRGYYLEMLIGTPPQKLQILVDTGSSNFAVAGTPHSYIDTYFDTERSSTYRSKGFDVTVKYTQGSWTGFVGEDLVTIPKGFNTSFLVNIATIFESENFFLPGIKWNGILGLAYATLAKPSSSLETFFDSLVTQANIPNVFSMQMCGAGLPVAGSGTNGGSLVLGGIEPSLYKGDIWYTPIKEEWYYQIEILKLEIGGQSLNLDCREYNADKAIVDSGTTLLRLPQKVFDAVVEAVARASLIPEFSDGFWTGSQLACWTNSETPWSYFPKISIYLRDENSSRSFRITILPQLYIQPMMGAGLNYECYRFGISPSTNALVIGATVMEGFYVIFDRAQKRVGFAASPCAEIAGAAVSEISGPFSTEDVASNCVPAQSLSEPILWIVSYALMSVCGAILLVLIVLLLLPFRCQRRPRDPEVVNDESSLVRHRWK
Procedure: [The source words this procedure for another target and reports this target under the same test.] as §1
where k was the relative hydrolytic rate constant and T was time in seconds. […]

[3] = Hepatic intrinsic clearance in liver microsomes; format: in vitro ADME; conditions: human, pH 7.4, human liver microsomes, in vitro clearance, read-out: HLM CL
How it was run: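 Human liver microsomes in pH 7.4 phosphate buffer with EDTA, preincubated 5 min at 37° C, then started with NADPH; samples taken at 0, 5, 10, 20 and 30 min and parent measured by LC/MS/MS. Remaining compound relative to 0 min gave half-life and k1, scaled to in vivo clearance per Davies and Morris.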

[4] = substrate peptide ELDLAVEFWHDR, pH 4.1, 37 degrees C, read-out: CD Ki

Chain of memapsin 2 (Homo sapiens, UniProt P56817) (P56817 46-501): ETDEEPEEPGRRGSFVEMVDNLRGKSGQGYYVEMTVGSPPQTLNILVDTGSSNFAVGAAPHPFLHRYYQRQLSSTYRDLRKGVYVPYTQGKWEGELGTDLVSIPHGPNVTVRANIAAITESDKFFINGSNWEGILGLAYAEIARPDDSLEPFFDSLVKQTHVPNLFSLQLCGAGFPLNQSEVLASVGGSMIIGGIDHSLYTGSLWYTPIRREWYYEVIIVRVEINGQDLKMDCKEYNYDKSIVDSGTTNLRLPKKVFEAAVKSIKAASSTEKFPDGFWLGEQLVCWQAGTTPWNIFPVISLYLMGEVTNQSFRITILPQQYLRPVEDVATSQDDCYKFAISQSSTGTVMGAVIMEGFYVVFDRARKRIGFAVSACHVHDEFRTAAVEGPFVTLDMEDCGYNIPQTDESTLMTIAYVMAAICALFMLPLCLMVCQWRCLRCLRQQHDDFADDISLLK

SMILES | Ki (memapsin 2 [1]) [nM] | IC50 (memapsin 2 [2]) [nM] | Ki (cathepsin D; [4]) [nM] | Ki (CYP3A4) [nM] | Ki (cathepsin D; read-out: CathD Ki) [nM] | Ki (memapsin 1) [nM] | Ki (memapsin 1; substrate peptide ELDLAVEFWHDR, pH 4.1, 37 degrees C) [nM] | CLint scaled at 200 μM [3] [mL/min/kg]
Cc1csc([C@H]2CCCN2C(=O)c2cc(C(=O)N[C@@H](Cc3ccccc3)[C@H](O)[C@H]3CCCN3)cc(-c3ncco3)c2)n1 [1-19, N-((1R,2S)-1-hydroxy-3-phenyl-1-((R)-pyrrolidin-2-yl)propan-2-yl)-3-((R)-2-(4-methylthiazol-2-yl)pyrrolidine-1-carbonyl)-5-(oxazol-2-yl)benzamide] | < 250 | < 500 | > 500 | > 10000 | – | – | – | –
Cc1csc([C@H]2CCCN2C(=O)c2cccc(C(=O)N[C@@H](Cc3ccccc3)[C@H](O)[C@H]3C[C@@H](OCc4ccccc4)CN3)c2)n1 [1-22, N-((1R,2S)-1-((2R,4R)-4-(benzyloxy)pyrrolidin-2-yl)-1-hydroxy-3-phenylpropan-2-yl)-3-((R)-2-(4-methylthiazol-2-yl)pyrrolidine-1-carbonyl)benzamide] | < 250 | < 500 | 300 to 500 | 1000 to 5000 | – | – | – | –
Cc1csc([C@H]2CCCN2C(=O)c2cc(C(=O)N[C@@H](Cc3ccccc3)[C@H](O)[C@H]3CCCN3)cc(N(C)S(C)(=O)=O)c2)n1 [1-23, N-((1R,2S)-1-hydroxy-3-phenyl-1-((R)-pyrrolidin-2-yl)propan-2-yl)-3-(N-methylmethylsulfonamido)-5-((R)-2-(4-methylthiazol-2-yl)pyrrolidine-1-carbonyl)benzamide] | < 250 | < 500 | > 500 | 5000 to 10000 | – | – | – | –
Cc1csc([C@H]2CCCN2C(=O)c2cc(C(=O)N[C@@H](Cc3ccccc3)[C@H](O)[C@H]3C[C@@H](OCc4ccccc4)CN3)cc(-n3cccc3)c2)n1 [1-25, N-((1R,2S)-1-((2R,4R)-4-(benzyloxy)pyrrolidin-2-yl)-1-hydroxy-3-phenylpropan-2-yl)-3-((R)-2-(4-methylthiazol-2-yl)pyrrolidine-1-carbonyl)-5-(1H-pyrrol-1-yl)benzamide] | < 250 | < 500 | < 300 | – | 48.8 | 624 | > 500 | –
Cc1csc([C@H]2CCCN2C(=O)c2cc(C(=O)N[C@@H](Cc3ccccc3)[C@H](O)[C@H]3CCCN3)cc(-c3cccc(C(F)(F)F)c3)c2)n1 [1-43, N-((1R,2S)-1-hydroxy-3-phenyl-1-((R)-pyrrolidin-2-yl)propan-2-yl)-5-((R)-2-(4-methylthiazol-2-yl)pyrrolidine-1-carbonyl)-3′-(trifluoromethyl)biphenyl-3-carboxamide] | < 250 | > 1000 | > 500 | – | – | – | – | < 400
Cc1csc([C@H]2CCCN2C(=O)c2cccc(C(=O)N[C@@H](Cc3cc(F)cc(F)c3)[C@H](O)[C@H]3CCCN3)c2)n1 [1-44, N-((1R,2S)-3-(3,5-difluorophenyl)-1-hydroxy-1-((R)-pyrrolidin-2-yl)propan-2-yl)-3-((R)-2-(4-methylthiazol-2-yl)pyrrolidine-1-carbonyl)benzamide] | < 250 | 500 to 1000 | > 500 | 1000 to 5000 | – | – | – | < 400
Cc1csc([C@H]2CCCN2C(=O)c2cc(C(=O)N[C@@H](Cc3cc(F)cc(F)c3)[C@H](O)[C@H]3CCCN3)cc(-c3ncco3)c2)n1 [1-49, N-((1R,2S)-3-(3,5-difluorophenyl)-1-hydroxy-1-((R)-pyrrolidin-2-yl)propan-2-yl)-3-((R)-2-(4-methylthiazol-2-yl)pyrrolidine-1-carbonyl)-5-(oxazol-2-yl)benzamide] | < 250 | < 500 | < 300 | – | – | – | – | –
C=CCO[C@H]1CN[C@@H]([C@@H](O)[C@H](Cc2ccccc2)NC(=O)c2cc(C(=O)N3CCC[C@@H]3c3nc(C)cs3)cc(-c3ncco3)c2)C1 [1-70, N-((1R,2S)-1-((2R,4R)-4-(allyloxy)pyrrolidin-2-yl)-1-hydroxy-3-phenylpropan-2-yl)-3-((R)-2-(4-methylthiazol-2-yl)pyrrolidine-1-carbonyl)-5-(oxazol-2-yl)benzamide] | < 250 | – | < 300 | – | – | – | – | –
Cc1csc([C@H]2CCCN2C(=O)c2cc(I)cc(C(=O)N[C@@H](Cc3ccccc3)[C@H](O)[C@H]3CCCN3)c2)n1 [1-71, N-((1R,2S)-1-hydroxy-3-phenyl-1-((R)-pyrrolidin-2-yl)propan-2-yl)-3-iodo-5-((R)-2-(4-methylthiazol-2-yl)pyrrolidine-1-carbonyl)benzamide] | < 250 | – | > 500 | – | – | – | – | –
Cc1csc([C@H]2CCCN2C(=O)c2cccc(C(=O)N[C@@H](Cc3ccccc3)[C@H](O)[C@H]3C[C@@H](Oc4ccccc4)CN3)c2)n1 [1-74, N-((1R,2S)-1-hydroxy-1-((2R,4R)-4-phenoxypyrrolidin-2-yl)-3-phenylpropan-2-yl)-3-((R)-2-(4-methylthiazol-2-yl)pyrrolidine-1-carbonyl)benzamide] | < 250 | – | > 500 | – | – | – | – | –
Cc1csc([C@H]2CCCN2C(=O)c2cc(C(=O)N[C@@H](Cc3ccccc3)[C@H](O)[C@H]3CCCN3)cc(N3CCCCS3(=O)=O)c2)n1 [1-78, N-((1R,2S)-1-hydroxy-3-phenyl-1-((R)-pyrrolidin-2-yl)propan-2-yl)-3-((R)-2-(4-methylthiazol-2-yl)pyrrolidine-1-carbonyl)-5-(thiazinanyl-S,S-dioxide)benzamide] | < 250 | – | > 500 | – | – | – | – | –
Cc1csc([C@H]2CCCN2C(=O)c2cc(C(=O)N[C@@H](Cc3ccccc3)[C@H](O)[C@H]3C[C@@H](Oc4ccccc4)CN3)cc(-c3ncco3)c2)n1 [1-79, N-((1R,2S)-1-hydroxy-1-((2R,4R)-4-phenoxypyrrolidin-2-yl)-3-phenylpropan-2-yl)-3-((R)-2-(4-methylthiazol-2-yl)pyrrolidine-1-carbonyl)-5-(oxazol-2-yl)benzamide] | < 250 | – | 300 to 500 | – | – | – | – | –
